Reference: the Bradley open melting point set (2014)
Values joined by “and” are separate entries in the source; they are usually repeats but may differ in a detail not shown here. Equal entries are not always repeated.

Going from `c1ccc2scnc2c1` [benzothiazole] to `Clc1ccccc1` [chlorobenzene], the melting point falls from 2 °C to -45 °C.

Compared with `ClC(Cl)(Cl)c1ccccc1` [benzotrichloride], `OCc1ccccc1` [benzyl_alcohol] is lower in melting point: -4 °C for the first, -15 °C for the second.

Going from `O=C(Cl)OCc1ccccc1` [benzyl chloroformate] to `NC(=O)NCc1ccccc1` [benzylurea], the melting point rises from -20 °C to 149 °C.

Compared with `O=S(=O)(Cc1ccccc1)c1ccccc1` [benzyl phenyl sulfone], `c1ccc(CCc2ccccc2)cc1` [bibenzyl] [listing 1 of 2 here] is lower in melting point: 149 °C for the first, 55 °C for the second.

Compared with `c1ccc(COCc2ccccc2)cc1` [benzyl_ether], `c1ccc(CCc2ccccc2)cc1` [bibenzyl] [listing 2 of 2 here] is higher in melting point: 3 °C for the first, 52 °C for the second.

First: OC[C@H]1O[C@@H](O)[C@H](O)[C@H](O)[C@@H]1O [beta-D-allose]
Second: C[C@H](CCC(=O)O)[C@H]1CC[C@H]2[C@@H]3[C@H](O)C[C@@H]4C[C@H](O)CC[C@]4(C)[C@H]3C[C@H](O)[C@]12C [cholic acid]
The melting point of the first is lower: 145 °C for the first, 201 °C for the second.

First: CC1=C(/C=C/C(C)=C/C=C/C(C)=C/C=C/C=C(C)/C=C/C=C(C)/C=C/C2=C(C)CCCC2(C)C)C(C)(C)CCC1 [beta-carotene]
Second: C[C@H]1C[C@H]2[C@@H]3CCC4=CC(=O)C=C[C@]4(C)[C@@]3(F)[C@@H](O)C[C@]2(C)[C@@]1(O)C(=O)CO [betamethasone]
The melting point of the first is lower: 180 °C for the first, 232 °C for the second.

Going from `C[C@]12CC[C@@H]3c4ccc(O)cc4CC[C@H]3[C@@H]1CC[C@@H]2O` [beta-estradiol] to `CCCCOC(=O)c1ccc(O)cc1` [butyl 4-hydroxybenzoate], the melting point falls from 177 °C to 69 °C.

Compared with `C1CCC(C2CCCCC2)CC1` [bicyclohexyl], `ClC1CCCCC1` [chlorocyclohexane] is lower in melting point: 4 °C for the first, -44 °C for the second.

First: Nc1ccc(-c2ccc(N)cc2N)c(N)c1 [biphenyl-2,2',4,4'-tetramine]
Second: Nc1ncnc(Nc2ccc(Cl)cc2)n1 [chlorazanil]
The melting point of the first is lower: 158 °C for the first, 233 °C for the second.

Compared with `OB(O)c1cccc(-c2ccccc2)c1` [biphenyl-3-boronic acid], `CNC(=O)Oc1cccc2ccccc12` [carbaryl] is lower in melting point: 209 °C for the first, 142 °C for the second.

Going from `COc1cc(C(=O)c2ccc(-c3ccccc3)cc2)c([N+](=O)[O-])cc1OC` [biphenyl-4-yl(4,5-dimethoxy-2-nitrophenyl)methanone] to `NC(=O)N1c2ccccc2C=Cc2ccccc21` [carbamazepine], the melting point rises from 145 °C to 190 °C.

First: N#CC(c1ccccc1[N+](=O)[O-])c1ccccc1[N+](=O)[O-] [bis(2-nitrophenyl)acetonitrile]
Second: c1ccc2c(c1)ccc1c3ccccc3ccc21 [chrysene]
The melting point of the first is lower: 110 °C for the first, 254 °C for the second.

Compared with `Clc1ccc(SSc2ccc(Cl)cc2)cc1` [bis(4-chlorophenyl) disulfide], `O=S(=O)(c1ccc(Cl)cc1)c1ccc(Cl)cc1` [bis(4-chlorophenyl) sulfone] is higher in melting point: 73 °C for the first, 149 °C for the second.

Compared with `CC(C)(C)OC(=O)NCC(=O)O` [boc-glycine], `COc1cc(C(=O)NCCCCCC(=O)O)cc(OC)c1OC` [capobenicacid] is higher in melting point: 88.5 °C for the first, 121 °C for the second.

`CC1(C)[C@H]2CC[C@]1(C)[C@H](O)C2` [borneol] and `CC1(C)[C@@H]2CC[C@@]1(C)[C@@H](O)C2` [borneol] are the same in melting point: 207 °C for the first, 207 °C for the second.

Going from `CCCCNc1cc(C(=O)O)cc(S(N)(=O)=O)c1Oc1ccccc1` [bumetanide] to `CCCCOC(=O)c1ccccc1` [butyl_benzoate], the melting point falls from 230 °C to -12 °C.

First: CS(=O)(=O)OCCCCOS(C)(=O)=O [busulfan]
Second: CCCCOC(=O)c1ccc(O)cc1 [butyl p-hydroxybenzoate]
The melting point of the first is higher: 116 °C for the first, 69 °C for the second.

First: CCC(C)C1(CC)C(=O)NC(=O)NC1=O (configuration not stated) [butabarbital]
Second: C=CCC1(CC(C)C)C(=O)NC(=O)NC1=O [butalbital] [listing 1 of 2 here]
The melting point of the first is higher: 166 °C for the first, 138 °C for the second.

Compared with `C=CCC1(CC(C)C)C(=O)NC(=O)NC1=O` [butalbital] [listing 2 of 2 here], `O=C(N[C@H](CO)[C@H](O)c1ccc([N+](=O)[O-])cc1)C(Cl)Cl` [chloramphenicol] is higher in melting point: 140 °C for the first, 151 °C for the second.

Going from `CCCC(N)=O` [butyramide] to `NNC(=O)NN` [carbohydrazide], the melting point rises from 115 °C to 156 °C.

Compared with `S=C=S` [carbon disulfide], `Cc1ccc(-c2cc(C(F)(F)F)nn2-c2ccc(S(N)(=O)=O)cc2)cc1` [celecoxib] is higher in melting point: -112 °C for the first, 158 °C for the second.

Compared with `CC(=O)Oc1ccccc1O` [catechol_monoacetate_(ortho)], `N#Cc1coc2ccccc2c1=O` [chromone-3-carbonitrile] is higher in melting point: 57 °C for the first, 175 °C for the second.

First: Cc1nnc(SCC2=C(C(=O)O)N3C(=O)[C@@H](NC(=O)Cn4cnnn4)[C@H]3SC2)s1 [cefazolin]
Second: CN(C)CCCN1c2ccccc2Sc2ccc(Cl)cc21 [chlorpromazine]
The melting point of the first is higher: 190 °C for the first, 57 °C for the second.

With `ClC(Cl)Cl` [chloroform] the melting point was -63 °C.

With `CCCC` [butane] the melting point was -138 °C and -137 °C.
With `CCCCOC(=O)c1ccc(O)cc1` [butylparaben] the melting point was 68.5 °C (2×) and 69 °C.
For `NC(=O)N1c2ccccc2C=Cc2ccccc21` [carbazepine], the melting point was 190 °C and 192 °C (2×).
